Results on one compound are retold here after ChEMBL document CHEMBL5532668, “Pitfalls and Considerations in Determining the Potency and Mutant Selectivity of Covalent Epidermal Growth Factor Receptor Inhibitors” (J Med Chem, 2024).

The target of assay [1] is Epidermal growth factor receptor (Homo sapiens, UniProt P00533, L858R). Put plainly: Binding affinity to EGFR L858R mutant (unknown origin) assessed as apparent inhibition constant in presence of ATP by TR-FRET assay. The conditions noted are these: read-out: Ki(app).
The species entered for another assay is Homo sapiens. As to the kind of experiment: Selectivity ratio, ratio of Ki for human wild type EGFR to Ki for EGFR L858R mutant (unknown origin).
Assay [2] relates to Epidermal growth factor receptor (Homo sapiens), P00533 [L858R].
The test system is the same in assay [3]. This is another data set of the same source.
For assay [4], the system named is Epidermal growth factor receptor (Homo sapiens), P00533 [L858R,T790M].
Epidermal growth factor receptor (Homo sapiens), P00533 [L858R,T790M], sequence (P00533 whole entry T790M/L858R, looked up): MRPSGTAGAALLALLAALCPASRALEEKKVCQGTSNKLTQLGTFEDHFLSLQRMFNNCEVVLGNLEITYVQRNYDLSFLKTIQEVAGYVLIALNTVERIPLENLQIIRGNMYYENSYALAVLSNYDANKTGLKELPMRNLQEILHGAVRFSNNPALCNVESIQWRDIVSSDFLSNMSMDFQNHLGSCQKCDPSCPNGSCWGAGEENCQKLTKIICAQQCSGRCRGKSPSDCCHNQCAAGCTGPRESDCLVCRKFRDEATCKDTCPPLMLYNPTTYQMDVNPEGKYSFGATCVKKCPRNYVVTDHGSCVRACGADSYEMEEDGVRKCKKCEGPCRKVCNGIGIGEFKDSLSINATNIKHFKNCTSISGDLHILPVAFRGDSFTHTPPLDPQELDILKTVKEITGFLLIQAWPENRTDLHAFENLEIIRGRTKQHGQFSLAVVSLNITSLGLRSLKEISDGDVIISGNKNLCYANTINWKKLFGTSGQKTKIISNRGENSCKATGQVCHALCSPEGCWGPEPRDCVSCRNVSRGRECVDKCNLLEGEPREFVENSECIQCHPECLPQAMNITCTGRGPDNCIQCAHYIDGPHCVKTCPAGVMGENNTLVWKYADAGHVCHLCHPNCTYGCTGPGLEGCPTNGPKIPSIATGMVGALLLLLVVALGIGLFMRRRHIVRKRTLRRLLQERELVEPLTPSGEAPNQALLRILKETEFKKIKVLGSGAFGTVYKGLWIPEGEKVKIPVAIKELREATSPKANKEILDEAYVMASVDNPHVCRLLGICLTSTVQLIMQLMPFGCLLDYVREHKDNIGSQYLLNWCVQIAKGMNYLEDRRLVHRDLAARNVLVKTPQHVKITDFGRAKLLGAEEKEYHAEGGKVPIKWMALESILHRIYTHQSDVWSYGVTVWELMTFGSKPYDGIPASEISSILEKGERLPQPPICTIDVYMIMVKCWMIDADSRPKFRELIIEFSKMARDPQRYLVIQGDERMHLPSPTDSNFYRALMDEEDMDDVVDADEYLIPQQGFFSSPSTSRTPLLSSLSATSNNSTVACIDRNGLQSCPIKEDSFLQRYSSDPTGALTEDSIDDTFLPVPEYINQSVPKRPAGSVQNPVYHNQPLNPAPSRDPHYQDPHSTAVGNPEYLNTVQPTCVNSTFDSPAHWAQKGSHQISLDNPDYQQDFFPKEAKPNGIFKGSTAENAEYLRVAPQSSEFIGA

Epidermal growth factor receptor (Homo sapiens), P00533 [L858R], sequence (P00533 whole entry L858R): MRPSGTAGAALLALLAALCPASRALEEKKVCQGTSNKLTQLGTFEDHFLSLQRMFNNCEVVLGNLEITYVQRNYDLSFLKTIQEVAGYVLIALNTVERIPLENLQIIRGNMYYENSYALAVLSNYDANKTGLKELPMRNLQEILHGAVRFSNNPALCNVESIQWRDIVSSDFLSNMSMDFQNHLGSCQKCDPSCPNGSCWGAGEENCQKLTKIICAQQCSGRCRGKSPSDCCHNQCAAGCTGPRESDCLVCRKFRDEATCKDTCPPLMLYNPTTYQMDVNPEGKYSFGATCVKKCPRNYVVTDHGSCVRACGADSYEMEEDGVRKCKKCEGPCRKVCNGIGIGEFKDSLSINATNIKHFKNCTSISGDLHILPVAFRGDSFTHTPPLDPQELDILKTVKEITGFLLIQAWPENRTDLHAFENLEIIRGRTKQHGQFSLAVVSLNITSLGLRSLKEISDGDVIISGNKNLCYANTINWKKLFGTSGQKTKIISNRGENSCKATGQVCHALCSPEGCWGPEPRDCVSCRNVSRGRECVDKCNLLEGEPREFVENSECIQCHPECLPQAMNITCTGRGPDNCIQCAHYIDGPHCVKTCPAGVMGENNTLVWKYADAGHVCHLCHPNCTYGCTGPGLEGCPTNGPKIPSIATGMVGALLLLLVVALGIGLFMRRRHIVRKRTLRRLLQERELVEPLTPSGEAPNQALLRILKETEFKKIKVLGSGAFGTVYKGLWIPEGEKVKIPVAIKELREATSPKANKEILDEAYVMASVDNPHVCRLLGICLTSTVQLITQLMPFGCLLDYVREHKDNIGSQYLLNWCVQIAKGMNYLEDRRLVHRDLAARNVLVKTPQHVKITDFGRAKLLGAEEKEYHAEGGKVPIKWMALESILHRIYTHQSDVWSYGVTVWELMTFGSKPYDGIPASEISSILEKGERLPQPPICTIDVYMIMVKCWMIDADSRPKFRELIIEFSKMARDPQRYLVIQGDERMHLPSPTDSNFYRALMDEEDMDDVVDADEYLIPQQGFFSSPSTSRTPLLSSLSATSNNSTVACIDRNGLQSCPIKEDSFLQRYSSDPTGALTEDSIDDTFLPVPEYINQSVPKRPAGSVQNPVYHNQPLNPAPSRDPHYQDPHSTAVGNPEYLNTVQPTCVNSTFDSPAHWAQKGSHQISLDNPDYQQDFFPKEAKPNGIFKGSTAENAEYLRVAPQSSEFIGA
Epidermal growth factor receptor, sequence (P00533 25-1210 L858R limits assumed): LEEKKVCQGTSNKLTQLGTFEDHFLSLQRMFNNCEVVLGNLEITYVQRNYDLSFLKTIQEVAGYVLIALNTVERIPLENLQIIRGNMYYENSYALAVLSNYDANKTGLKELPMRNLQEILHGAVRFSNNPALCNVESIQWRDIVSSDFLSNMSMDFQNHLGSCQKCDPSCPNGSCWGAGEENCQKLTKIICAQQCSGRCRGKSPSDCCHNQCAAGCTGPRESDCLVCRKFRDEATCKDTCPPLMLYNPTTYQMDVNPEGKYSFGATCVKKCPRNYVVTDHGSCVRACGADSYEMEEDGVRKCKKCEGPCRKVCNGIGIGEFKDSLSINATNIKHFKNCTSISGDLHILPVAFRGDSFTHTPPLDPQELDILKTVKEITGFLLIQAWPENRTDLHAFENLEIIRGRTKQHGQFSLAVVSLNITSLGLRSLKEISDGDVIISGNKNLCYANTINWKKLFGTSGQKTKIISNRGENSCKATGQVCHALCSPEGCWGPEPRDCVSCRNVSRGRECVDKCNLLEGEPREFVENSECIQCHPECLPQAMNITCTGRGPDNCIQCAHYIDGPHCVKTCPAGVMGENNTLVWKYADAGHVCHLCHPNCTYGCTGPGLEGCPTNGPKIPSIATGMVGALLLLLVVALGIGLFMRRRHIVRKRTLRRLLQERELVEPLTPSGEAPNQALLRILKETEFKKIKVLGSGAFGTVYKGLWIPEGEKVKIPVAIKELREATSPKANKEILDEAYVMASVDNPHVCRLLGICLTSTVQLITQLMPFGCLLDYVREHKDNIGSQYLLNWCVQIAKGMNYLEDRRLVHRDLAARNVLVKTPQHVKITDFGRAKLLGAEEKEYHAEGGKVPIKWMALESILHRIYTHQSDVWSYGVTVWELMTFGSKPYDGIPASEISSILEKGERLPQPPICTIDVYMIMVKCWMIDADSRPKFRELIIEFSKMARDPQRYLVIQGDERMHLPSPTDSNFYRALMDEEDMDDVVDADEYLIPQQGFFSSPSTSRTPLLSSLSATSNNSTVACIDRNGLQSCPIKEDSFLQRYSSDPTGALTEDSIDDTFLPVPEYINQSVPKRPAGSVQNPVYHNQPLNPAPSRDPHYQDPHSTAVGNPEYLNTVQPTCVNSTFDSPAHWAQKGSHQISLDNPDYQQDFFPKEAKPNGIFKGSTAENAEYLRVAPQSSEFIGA

As for `C=CC(=O)Nc1cc(Nc2nccc(-n3cc(CN(C)C)c(-c4ccccc4)n3)n2)c(OC)cc1N1CCOCC1` [LAZERTINIB], the Ki in assay [1] is 4.68 nM. Besides, the Ratio Ki in the assay filed under Homo sapiens came out at 0.358. Moreover, the Kinact in assay [2] was 5.88 10^-3/s; in assay [3] it was 0.00971 s⁻¹; in assay [4] it was 3.92 10^-3/s.
